Reference: ChEMBL document CHEMBL1201862, “PubChem BioAssay data set” (2004)
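Assay format: 96-well plates, 48-hour exposure. GI50 = concentration required for 50% inhibition of growth.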 Activity calls are given as the source filed them. Cut-off read from the data, not from the text of the source: active = GI50 up to about 1.1 µM and inactive = higher.

What was measured:
Experiment in all cases: inhibition of tumour cell growth, NCI panel, 48 h
786-0 = system: 786-0
SN12C = system: SN12C
NCI-H522 = system: NCI-H522
NCI-H23 = system: NCI-H23
SK-MEL-2 = system: SK-MEL-2
LOX IMVI = system: LOX IMVI
SNB-19 = system: SNB-19
RPMI-8226 = system: RPMI-8226
CAKI-1 = system: CAKI-1
MDA-N = system: MDA-N
OVCAR-5 = system: OVCAR-5
SW-620 = system: SW-620
A549 = system: A549
K562 = system: K562
HT-29 = system: HT-29
Malme-3M = system: Malme-3M
SK-MEL-28 = system: SK-MEL-28
NCI-H460 = system: NCI-H460
SR = system: SR
RXF 393 = system: RXF 393

Measured: GI50

COc1cccc(-n2nnc3c(N)nc(N)nc32)c1
inactive: 786-0 > 100 µM | SN12C > 100 µM | NCI-H522 > 100 µM | NCI-H23 28.9 µM | SK-MEL-2 > 100 µM | LOX IMVI > 100 µM | SNB-19 48.8 µM | RPMI-8226 > 100 µM | CAKI-1 > 100 µM | MDA-N > 100 µM | OVCAR-5 > 100 µM | SW-620 > 100 µM | A549 > 100 µM | K562 > 100 µM | HT-29 > 100 µM | Malme-3M > 100 µM | SK-MEL-28 > 100 µM | NCI-H460 94.4 µM

O=C(c1ccccc1)[C@H]1Nc2cnccc2C2c3ccccc3CC21 (stereo not given in full)
inactive: 786-0 12.8 µM | SN12C 8.59 µM | NCI-H522 2.78 µM | NCI-H23 8.51 µM | SK-MEL-2 11.1 µM | LOX IMVI 1.57 µM | SNB-19 26.7 µM | RPMI-8226 7 µM | CAKI-1 24.9 µM | OVCAR-5 28.4 µM | SW-620 17.9 µM | A549 21.9 µM | K562 3.14 µM | HT-29 19.4 µM | Malme-3M 12.9 µM | SR 7.43 µM | RXF 393 14.8 µM | SK-MEL-28 14.1 µM | NCI-H460 15.1 µM

CCCCOC(=O)C(=O)C(CC(CC)C(=O)c1ccccc1)C(=O)C=C(C)C (stereo not given)
inactive: 786-0 > 100 µM | SN12C > 100 µM | NCI-H522 > 100 µM | NCI-H23 > 100 µM | SK-MEL-2 > 100 µM | LOX IMVI > 100 µM | SNB-19 > 100 µM | CAKI-1 > 100 µM | MDA-N > 100 µM | OVCAR-5 > 100 µM | SW-620 > 100 µM | A549 > 100 µM | RXF 393 > 100 µM | SK-MEL-28 > 100 µM | NCI-H460 > 100 µM

COc1ccc(-n2/c(=N/C(=S)N(C)C)ss/c2=N\C(=S)N(C)C)cc1
inactive: 786-0 32.7 µM | SN12C > 100 µM | NCI-H522 2.54 µM | NCI-H23 39.4 µM | SK-MEL-2 46.9 µM | LOX IMVI > 100 µM | SNB-19 11.6 µM | RPMI-8226 21 µM | CAKI-1 > 100 µM | OVCAR-5 > 100 µM | SW-620 > 100 µM | A549 > 100 µM | K562 11.6 µM | HT-29 2.26 µM | Malme-3M > 100 µM | SR > 100 µM | RXF 393 29.6 µM | SK-MEL-28 9.35 µM | NCI-H460 2.98 µM

CN1C(c2ccccc2)CC(C)(O)CC1c1ccccc1 (stereo not given)
inactive: 786-0 > 100 µM | SN12C > 100 µM | NCI-H522 > 100 µM | NCI-H23 > 100 µM | SK-MEL-2 > 100 µM | LOX IMVI > 100 µM | SNB-19 > 100 µM | RPMI-8226 > 100 µM | CAKI-1 > 100 µM | OVCAR-5 > 100 µM | SW-620 > 100 µM | A549 > 100 µM | K562 > 100 µM | HT-29 > 100 µM | Malme-3M > 100 µM | SR > 100 µM | RXF 393 > 100 µM | SK-MEL-28 > 100 µM | NCI-H460 > 100 µM

Cc1ccc(S(=O)(=O)NC(=O)NCCc2c[nH]cn2)cc1
inactive: 786-0 > 100 µM | NCI-H522 > 100 µM | NCI-H23 > 100 µM | SK-MEL-2 > 100 µM | LOX IMVI > 100 µM | SNB-19 > 100 µM | RPMI-8226 > 100 µM | CAKI-1 > 100 µM | OVCAR-5 > 100 µM | SW-620 > 100 µM | A549 > 100 µM | K562 > 100 µM | HT-29 > 100 µM | Malme-3M > 100 µM | SR > 100 µM | RXF 393 > 100 µM | SK-MEL-28 > 100 µM | NCI-H460 > 100 µM

NNC(=O)CCC(=O)Nc1ccc(Cl)cc1Cl
inactive: 786-0 > 100 µM | SN12C > 100 µM | NCI-H522 > 100 µM | NCI-H23 > 100 µM | SK-MEL-2 54.6 µM | LOX IMVI 43.8 µM | SNB-19 > 100 µM | RPMI-8226 80.5 µM | CAKI-1 > 100 µM | OVCAR-5 > 100 µM | SW-620 > 100 µM | A549 > 100 µM | K562 19.1 µM | HT-29 > 100 µM | Malme-3M > 100 µM | SR 6.68 µM | RXF 393 > 100 µM | SK-MEL-28 > 100 µM | NCI-H460 > 100 µM

CCOC(=O)C(/C(=N\NC(=O)OC)C(=O)Nc1cc(OC)ccc1OC)c1cnc2ccccc2n1 (stereo not given)
inactive: 786-0 > 100 µM | SN12C > 100 µM | NCI-H522 > 100 µM | NCI-H23 > 100 µM | LOX IMVI > 100 µM | RPMI-8226 > 100 µM | CAKI-1 > 100 µM | SW-620 > 100 µM | A549 > 100 µM | K562 > 100 µM | HT-29 > 100 µM | Malme-3M > 100 µM | SR > 100 µM | RXF 393 > 100 µM | SK-MEL-28 > 100 µM | NCI-H460 > 100 µM

C/C(=N\N(C)C)c1sc(-n2nc(-c3ccccc3)cc2-c2ccccc2)nc1C
inactive: 786-0 > 100 µM | SN12C > 100 µM | NCI-H522 > 100 µM | NCI-H23 > 100 µM | SK-MEL-2 > 100 µM | LOX IMVI 16.3 µM | SNB-19 > 100 µM | CAKI-1 > 100 µM | OVCAR-5 21 µM | SW-620 > 100 µM | A549 > 100 µM | K562 > 100 µM | HT-29 > 100 µM | Malme-3M > 100 µM | SR > 100 µM | RXF 393 > 100 µM | SK-MEL-28 > 100 µM | NCI-H460 > 100 µM

CC1CCC2c3c([nH]c4ccccc34)C3C(=O)N(c4ccccc4)C(=O)C3C2C1 (stereo not given)
inactive: 786-0 13.3 µM | SN12C > 250 µM | NCI-H522 142 µM | NCI-H23 34.4 µM | SK-MEL-2 32.5 µM | LOX IMVI 42.8 µM | SNB-19 32.6 µM | RPMI-8226 > 100 µM | CAKI-1 > 250 µM | OVCAR-5 > 100 µM | SW-620 > 250 µM | A549 90.8 µM | K562 46.8 µM | HT-29 > 250 µM | Malme-3M 54.3 µM | SR 65 µM | RXF 393 12.2 µM | SK-MEL-28 > 250 µM | NCI-H460 > 250 µM

CCCCNC(=S)OCCC(C)CCCC(C)C (stereo not given)
inactive: 786-0 > 100 µM | SN12C > 100 µM | NCI-H23 > 100 µM | SK-MEL-2 > 100 µM | LOX IMVI > 100 µM | SNB-19 > 100 µM | RPMI-8226 > 100 µM | CAKI-1 > 100 µM | OVCAR-5 > 100 µM | SW-620 > 100 µM | A549 > 100 µM | K562 > 100 µM | HT-29 > 100 µM | Malme-3M > 100 µM | SR > 100 µM | RXF 393 > 100 µM | SK-MEL-28 87.9 µM | NCI-H460 > 100 µM

CCOC(=O)/C=C\[C@H]1OC(C)(C)O[C@H]1[C@H](O)[C@H]1COC(C)(C)O1
inactive: 786-0 19.4 µM | SN12C 17.4 µM | NCI-H522 13.8 µM | NCI-H23 21.7 µM | SK-MEL-2 22.3 µM | LOX IMVI 20 µM | SNB-19 > 100 µM | RPMI-8226 19.8 µM | CAKI-1 2.57 µM | OVCAR-5 17.1 µM | SW-620 19.6 µM | A549 > 100 µM | K562 10.4 µM | HT-29 20.7 µM | Malme-3M 18.9 µM | SR 17.1 µM | RXF 393 20 µM | SK-MEL-28 17.7 µM | NCI-H460 27 µM

Cc1cc(Cl)ccc1NC(=O)C(=O)Cc1nc2ccc(C(=O)c3ccccc3)cc2nc1O
inactive: 786-0 > 100 µM | SN12C > 100 µM | NCI-H522 39.4 µM | NCI-H23 > 100 µM | SK-MEL-2 > 100 µM | LOX IMVI > 100 µM | SNB-19 > 100 µM | CAKI-1 > 100 µM | SW-620 97.9 µM | A549 75.3 µM | HT-29 > 100 µM | Malme-3M > 100 µM | SR 7.4 µM | RXF 393 > 100 µM | SK-MEL-28 > 100 µM | NCI-H460 96.8 µM

O=C1CCC(=O)c2cc(Br)ccc2N1
inactive: 786-0 > 100 µM | SN12C > 100 µM | NCI-H522 > 100 µM | NCI-H23 > 100 µM | SK-MEL-2 > 100 µM | LOX IMVI > 96.6 µM | SNB-19 > 100 µM | RPMI-8226 > 67.5 µM | CAKI-1 > 100 µM | OVCAR-5 > 100 µM | SW-620 > 57.8 µM | A549 98.6 µM | K562 > 100 µM | HT-29 > 100 µM | Malme-3M > 100 µM | SR 26.4 µM | RXF 393 > 74.1 µM | SK-MEL-28 > 100 µM | NCI-H460 > 100 µM

COc1ccccc1NC(=S)Nc1cccc(C)n1
inactive: 786-0 79.3 µM | SN12C > 100 µM | NCI-H522 2.84 µM | SK-MEL-2 > 100 µM | LOX IMVI > 100 µM | SNB-19 > 100 µM | RPMI-8226 > 100 µM | CAKI-1 88.5 µM | OVCAR-5 > 100 µM | SW-620 > 100 µM | A549 > 100 µM | K562 > 100 µM | HT-29 45.3 µM | Malme-3M 16.7 µM | SR > 100 µM | RXF 393 > 100 µM | SK-MEL-28 > 100 µM | NCI-H460 > 100 µM
